Data: patent publication US8906946B2, “TRPM8 receptor antagonists” (Dompe' S.p.A., priority 2011, dated 2014)

How the values were obtained:
CYP1A2 = target: T1, CYP1A2 (Homo sapiens, UniProt P05177); assay: CYP inhibition 1A2; assay type: in vitro ADME; conditions: 1A2, 10 μM
T1 sequence (P05177 1-516): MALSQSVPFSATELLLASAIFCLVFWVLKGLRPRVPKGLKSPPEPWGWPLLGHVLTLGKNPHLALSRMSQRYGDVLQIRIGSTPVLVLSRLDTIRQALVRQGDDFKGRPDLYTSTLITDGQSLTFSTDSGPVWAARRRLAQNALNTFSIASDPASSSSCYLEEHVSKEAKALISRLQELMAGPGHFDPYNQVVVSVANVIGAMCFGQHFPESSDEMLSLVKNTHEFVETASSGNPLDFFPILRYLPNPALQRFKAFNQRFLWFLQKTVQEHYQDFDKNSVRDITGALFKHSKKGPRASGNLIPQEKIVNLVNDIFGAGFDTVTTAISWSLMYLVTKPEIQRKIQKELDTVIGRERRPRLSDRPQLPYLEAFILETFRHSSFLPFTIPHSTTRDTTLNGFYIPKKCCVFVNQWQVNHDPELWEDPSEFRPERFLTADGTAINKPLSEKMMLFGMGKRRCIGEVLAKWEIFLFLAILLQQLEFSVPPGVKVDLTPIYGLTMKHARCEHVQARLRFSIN

Plasma stability, rat = assay type: in vitro ADME
hepatocytes [1] = assay: Metabolic stability hepatocytes, rat; assay type: in vitro ADME
hepatocytes [2] = assay: Metabolic stability hepatocytes, human; assay type: in vitro ADME
CYP2C19 = CYP2C19 (Homo sapiens, UniProt P33261); assay: CYP inhibition 2C19; assay type: in vitro ADME; conditions: 2C19, 10 μM
Chain of CYP2C19 (P33261 whole entry): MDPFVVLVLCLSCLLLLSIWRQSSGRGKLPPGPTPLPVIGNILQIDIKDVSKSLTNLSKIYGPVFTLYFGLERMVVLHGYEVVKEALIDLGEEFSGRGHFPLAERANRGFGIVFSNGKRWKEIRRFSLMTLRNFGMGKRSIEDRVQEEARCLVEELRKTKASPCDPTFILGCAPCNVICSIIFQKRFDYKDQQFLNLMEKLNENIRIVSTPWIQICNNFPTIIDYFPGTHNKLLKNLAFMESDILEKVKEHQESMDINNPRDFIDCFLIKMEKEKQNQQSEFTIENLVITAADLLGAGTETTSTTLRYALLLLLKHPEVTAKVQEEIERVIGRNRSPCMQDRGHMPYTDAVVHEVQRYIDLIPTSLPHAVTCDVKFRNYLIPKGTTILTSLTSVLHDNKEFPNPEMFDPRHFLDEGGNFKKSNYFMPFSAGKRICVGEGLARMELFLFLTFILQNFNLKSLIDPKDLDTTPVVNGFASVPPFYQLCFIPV

human TRPM8 = human TRPM8 (Homo sapiens, UniProt Q7Z2W7); assay: Selectivity analysis, calcium influx assay (Fluo-8, FLIPR TETRA), hTRPM8 in CHO cells; assay type: cell-based; set-up: expressed in transfected cells; host or cells: CHO
Chain of human TRPM8 (Q7Z2W7 whole entry): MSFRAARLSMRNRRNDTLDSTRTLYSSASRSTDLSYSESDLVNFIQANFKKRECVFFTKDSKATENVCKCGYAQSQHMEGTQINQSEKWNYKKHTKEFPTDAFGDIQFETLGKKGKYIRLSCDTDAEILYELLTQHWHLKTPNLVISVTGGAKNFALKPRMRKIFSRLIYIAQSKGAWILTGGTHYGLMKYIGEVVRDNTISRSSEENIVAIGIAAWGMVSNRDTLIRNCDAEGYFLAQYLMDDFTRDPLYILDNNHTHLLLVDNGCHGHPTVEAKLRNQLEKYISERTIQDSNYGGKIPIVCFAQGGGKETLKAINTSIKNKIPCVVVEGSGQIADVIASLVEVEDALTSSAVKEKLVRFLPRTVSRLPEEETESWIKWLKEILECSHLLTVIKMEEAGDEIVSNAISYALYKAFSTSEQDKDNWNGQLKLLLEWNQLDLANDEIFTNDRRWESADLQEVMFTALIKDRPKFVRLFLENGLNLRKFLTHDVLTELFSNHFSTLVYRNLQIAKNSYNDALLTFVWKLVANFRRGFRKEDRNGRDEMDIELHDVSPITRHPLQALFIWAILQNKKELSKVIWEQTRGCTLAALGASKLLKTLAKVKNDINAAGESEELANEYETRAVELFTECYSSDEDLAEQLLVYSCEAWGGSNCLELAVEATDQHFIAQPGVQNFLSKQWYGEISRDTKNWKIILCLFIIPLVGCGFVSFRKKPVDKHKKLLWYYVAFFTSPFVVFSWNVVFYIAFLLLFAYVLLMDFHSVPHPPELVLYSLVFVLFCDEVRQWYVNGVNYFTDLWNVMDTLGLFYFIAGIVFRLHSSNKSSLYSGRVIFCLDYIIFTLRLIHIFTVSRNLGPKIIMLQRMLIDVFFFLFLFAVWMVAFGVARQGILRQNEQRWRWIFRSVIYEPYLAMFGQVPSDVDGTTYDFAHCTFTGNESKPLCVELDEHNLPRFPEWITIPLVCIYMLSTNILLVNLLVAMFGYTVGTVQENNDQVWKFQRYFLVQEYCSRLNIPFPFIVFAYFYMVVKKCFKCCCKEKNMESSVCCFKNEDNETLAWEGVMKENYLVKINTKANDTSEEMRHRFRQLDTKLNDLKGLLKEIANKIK
Protocol: The following 3 cloned human channels were evaluated in this study. • 1. Cloned hTRPM8 channels (encoded by the human TRPM8 gene, stably expressed in CHO cells), • 2. Cloned hTRPV1 channels (encoded by the human TRPV1 gene, stably expressed in HEK293 cells), • 3. Cloned hTRPV4 channels (encoded by the human TRPV4 gene, stably expressed in CHO cells). […] The ability of compound (1) to act as an antagonist of TRPM8 was evaluated with a calcium influx assay. […] Values were considered significant and highlighted in yellow if the test article mean was three or more standard deviations away from the positive control agonist mean.

hTRPV1 channels = target: T2, hTRPV1 channels (Homo sapiens, UniProt Q8NER1); assay: Selectivity analysis, calcium influx assay, hTRPV1 in HEK293 cells; assay type: cell-based
T2 construct: expressed in transfected cells; host or cells: HEK293
T2 sequence (Q8NER1 whole entry): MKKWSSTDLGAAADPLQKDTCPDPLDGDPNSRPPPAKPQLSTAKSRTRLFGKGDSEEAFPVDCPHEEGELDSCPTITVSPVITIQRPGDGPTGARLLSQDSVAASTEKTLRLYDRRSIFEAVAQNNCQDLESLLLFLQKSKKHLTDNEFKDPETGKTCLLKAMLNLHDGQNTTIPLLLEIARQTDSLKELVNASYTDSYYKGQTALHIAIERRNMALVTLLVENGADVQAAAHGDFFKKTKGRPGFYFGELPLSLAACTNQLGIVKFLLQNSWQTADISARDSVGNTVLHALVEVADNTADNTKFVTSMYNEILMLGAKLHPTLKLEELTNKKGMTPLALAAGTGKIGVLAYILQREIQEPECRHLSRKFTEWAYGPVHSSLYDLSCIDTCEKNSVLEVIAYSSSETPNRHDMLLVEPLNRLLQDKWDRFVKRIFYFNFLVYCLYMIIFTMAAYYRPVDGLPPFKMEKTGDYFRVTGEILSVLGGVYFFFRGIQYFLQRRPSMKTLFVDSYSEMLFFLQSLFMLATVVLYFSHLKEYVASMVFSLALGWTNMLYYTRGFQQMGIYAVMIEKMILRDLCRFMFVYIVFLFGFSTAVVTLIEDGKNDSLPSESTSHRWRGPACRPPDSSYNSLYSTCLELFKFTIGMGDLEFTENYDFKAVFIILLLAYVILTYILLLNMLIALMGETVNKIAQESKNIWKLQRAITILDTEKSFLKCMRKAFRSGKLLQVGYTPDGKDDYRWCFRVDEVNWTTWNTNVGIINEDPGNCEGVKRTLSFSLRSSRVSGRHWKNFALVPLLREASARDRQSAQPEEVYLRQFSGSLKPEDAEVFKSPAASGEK
Protocol: (§1) The objective of this study was to evaluate the effects in vitro of compound 1 on 3 cloned human channels expressed in HEK293 or CHO cells using the Fluo-8 calcium kit (AAT Bioquest, Inc.), and a Fluorescence Imaging Plate Reader (FLIPR^TETRA™) instrument. The following 3 cloned human channels were evaluated in this study. • 1. Cloned hTRPM8 channels (encoded by the human TRPM8 gene, stably expressed in CHO cells), • 2. Cloned hTRPV1 channels (encoded by the human TRPV1 gene, stably expressed in HEK293 cells), • 3. Cloned hTRPV4 channels (encoded by the human TRPV4 gene, stably expressed in CHO cells).
(§2) The effects of […] (0.001, 0.01, 1, and 10 μM) of compound (1) were evaluated on these three TRP channels (n>3) using the following experimental procedure for each channel tested:
(§3) The ability of compound (1) to act as an antagonist of TRPV1 was evaluated with a calcium influx assay. The signal elicited in the presence of the positive control agonist (0.1 μM capsaicin) was set to 100% and the signal in the presence of the antagonist (5 μM ruthenium red) was set to 0.

CYP2D6 = CYP2D6 (Homo sapiens, UniProt P10635); assay: CYP inhibition 2D6; assay type: in vitro ADME; conditions: 2D6, 10 μM
Chain of CYP2D6 (P10635 whole entry): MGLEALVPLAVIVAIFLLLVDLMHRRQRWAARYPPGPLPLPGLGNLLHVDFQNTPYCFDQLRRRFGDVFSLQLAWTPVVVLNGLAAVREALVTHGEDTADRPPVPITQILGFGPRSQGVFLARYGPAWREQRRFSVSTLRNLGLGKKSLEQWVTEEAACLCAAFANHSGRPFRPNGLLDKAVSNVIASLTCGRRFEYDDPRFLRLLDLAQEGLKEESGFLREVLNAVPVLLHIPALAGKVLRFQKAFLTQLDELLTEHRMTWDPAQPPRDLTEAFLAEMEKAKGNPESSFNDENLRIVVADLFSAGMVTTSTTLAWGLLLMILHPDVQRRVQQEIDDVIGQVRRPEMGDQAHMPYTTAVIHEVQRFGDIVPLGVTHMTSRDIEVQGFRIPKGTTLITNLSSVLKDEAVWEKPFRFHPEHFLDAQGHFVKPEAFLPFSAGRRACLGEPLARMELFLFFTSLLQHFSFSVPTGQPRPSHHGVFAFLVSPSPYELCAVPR

hTRPV4 channels = target: T3, hTRPV4 channels (Homo sapiens, UniProt Q9HBA0); assay: Selectivity analysis, calcium influx assay, hTRPV4 in CHO cells; assay type: cell-based
T3 construct: expressed in transfected cells; host or cells: CHO
T3 sequence (Q9HBA0 whole entry): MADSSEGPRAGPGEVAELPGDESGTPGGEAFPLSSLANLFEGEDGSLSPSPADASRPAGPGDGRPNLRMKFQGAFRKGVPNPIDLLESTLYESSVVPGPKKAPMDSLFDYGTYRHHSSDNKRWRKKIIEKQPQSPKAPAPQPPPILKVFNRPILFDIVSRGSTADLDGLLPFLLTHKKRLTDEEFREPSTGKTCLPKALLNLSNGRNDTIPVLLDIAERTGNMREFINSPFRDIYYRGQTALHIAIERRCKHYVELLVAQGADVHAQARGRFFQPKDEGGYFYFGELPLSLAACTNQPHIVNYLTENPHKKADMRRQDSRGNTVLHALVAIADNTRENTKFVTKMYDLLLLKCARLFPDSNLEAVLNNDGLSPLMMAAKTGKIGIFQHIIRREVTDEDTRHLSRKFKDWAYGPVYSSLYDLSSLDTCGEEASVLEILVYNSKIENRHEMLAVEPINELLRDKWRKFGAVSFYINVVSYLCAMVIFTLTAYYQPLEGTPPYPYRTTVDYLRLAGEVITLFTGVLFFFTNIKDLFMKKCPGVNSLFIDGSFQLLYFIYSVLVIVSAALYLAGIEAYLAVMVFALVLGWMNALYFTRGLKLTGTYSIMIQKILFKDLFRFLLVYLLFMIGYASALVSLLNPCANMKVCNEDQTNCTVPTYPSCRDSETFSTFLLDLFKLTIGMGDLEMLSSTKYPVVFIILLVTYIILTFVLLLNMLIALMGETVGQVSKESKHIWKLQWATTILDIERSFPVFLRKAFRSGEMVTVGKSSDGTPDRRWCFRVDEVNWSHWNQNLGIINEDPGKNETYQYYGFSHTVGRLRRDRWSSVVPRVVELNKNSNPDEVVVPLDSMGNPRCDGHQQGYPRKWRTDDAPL
Protocol: as §1, §2
as §3, with “TRPV4” for “TRPV1”, “(10” for “(0.1”, “GSK1016790A)” for “capsaicin)”, “0. Values were considered significant if the test article mean was three or more standard deviations away from the positive control agonist mean.” for “0.”

[3] = tested on: rhythmic bladder contractions; assay: Isovolumetric bladder model, intravenous protocol; assay type: in vivo, rat; conditions: 10 mg/kg i.v., anesthetized female rats
Protocol: Female rats were anesthetized with urethane. Ureters were ligated and sectioned. A catheter was inserted through the urinary meatus into the bladder before urethral ligature. Two protocols for testing compounds were used: intravenous (i.v.) or intravesical (i.ves.) administration.
In the first protocol, the bladder was filled by step of 100 μL of saline every 5 min until the occurrence of rhythmic bladder contractions (RBC). After a 30 min control period, compound (1) dissolved in solutol/NMP solution (2:1 w/w) at a dosage of 10 mg/kg, or vehicle were administered i.v (1 ml in 5 min) […] and the resulting effect was followed for 60 min. For each group, Micturition Frequency (MF) and Amplitude of Micturition (AM) were measured during the control and treatment periods.

t1/2 i.v. rat = conditions: in vivo, iv
CYP2C9 = CYP2C9 (Homo sapiens, UniProt P11712); assay: CYP inhibition 2C9; assay type: in vitro ADME; conditions: 2C9, 10 μM
Chain of CYP2C9 (P11712 whole entry): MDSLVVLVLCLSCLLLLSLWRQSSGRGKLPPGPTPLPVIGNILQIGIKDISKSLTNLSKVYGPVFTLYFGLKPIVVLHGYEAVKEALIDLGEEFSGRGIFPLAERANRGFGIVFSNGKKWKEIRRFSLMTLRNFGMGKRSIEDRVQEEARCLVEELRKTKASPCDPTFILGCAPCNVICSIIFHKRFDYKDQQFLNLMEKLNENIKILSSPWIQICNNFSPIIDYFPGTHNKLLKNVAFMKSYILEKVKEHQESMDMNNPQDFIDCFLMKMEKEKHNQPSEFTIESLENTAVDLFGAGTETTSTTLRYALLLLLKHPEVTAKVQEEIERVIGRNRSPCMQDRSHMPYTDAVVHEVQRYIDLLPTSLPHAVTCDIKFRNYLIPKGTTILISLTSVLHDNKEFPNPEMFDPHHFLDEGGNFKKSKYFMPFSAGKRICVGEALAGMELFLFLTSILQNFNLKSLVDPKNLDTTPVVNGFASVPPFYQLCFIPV

[4] = CHO, read-out: normalized % inhibition TRPM8

- inhibition at 10 µM (CYP1A2): 98.8%
- Plasma stability (% remaining) @10 μM (Plasma stability, rat): 87%
- Metabolic stability hepatocytes (% remaining at 120 min @1 μM) (hepatocytes [1]): 5.0%
- Metabolic stability hepatocytes (% remaining at 120 min @1 μM) (hepatocytes [2]): 2.6%
- inhibition at 10 µM (CYP2C19): 55.3%
- inhibition at 0.001 µM (human TRPM8; [4]): -25.2%
- inhibition at 0.01 µM (human TRPM8; [4]): 21.4%
- inhibition at 0.1 µM (human TRPM8; [4]): 95.6%
- inhibition at 1 µM (human TRPM8; [4]): 95.6%
- inhibition at 10 µM (human TRPM8; [4]): 96.4%
- IC50 (human TRPM8; read-out: IC50 (TRPM8)): 70 nM
- inhibition at 0.001 µM (hTRPV1 channels; HEK293, 0.001 μM, 0.1 μM capsaicin = 100%, 5 μM ruthenium red = 0, read-out: normalized % inhibition TRPV1): -9.14%
- inhibition at 0.01 µM (hTRPV1 channels; HEK293, 0.01 μM, 0.1 μM capsaicin, read-out: normalized % inhibition TRPV1): 5.29%
- inhibition at 0.1 µM (hTRPV1 channels; HEK293, 0.1 μM, 0.1 μM capsaicin, read-out: normalized % inhibition TRPV1): 2.12%
- inhibition at 1 µM (hTRPV1 channels; HEK293, 1 μM, 0.1 μM capsaicin, read-out: normalized % inhibition TRPV1): 5.37%
- inhibition at 10 µM (hTRPV1 channels; HEK293, 10 μM, 0.1 μM capsaicin, read-out: normalized % inhibition TRPV1): 4.9%
- inhibition of TRPV1 ion channel (in words) (hTRPV1 channels; all the assay concentrations): do not show any relevant inhibition
- inhibition at 10 µM (CYP2D6): 100%
- inhibition at 0.001 µM (hTRPV4 channels; 0.001 μM, 10 μM GSK1016790A = 100%, 5 μM ruthenium red = 0, read-out: normalized % inhibition TRPV4): 13.3%
- inhibition at 0.01 µM (hTRPV4 channels; 0.01 μM, 10 μM GSK1016790A, read-out: normalized % inhibition TRPV4): 9.03%
- inhibition at 0.1 µM (hTRPV4 channels; 0.1 μM, 10 μM GSK1016790A, read-out: normalized % inhibition TRPV4): 12.2%
- inhibition at 1 µM (hTRPV4 channels; 1 μM, 10 μM GSK1016790A, read-out: normalized % inhibition TRPV4): 1.97%
- inhibition at 10 µM (hTRPV4 channels; 10 μM, 10 μM GSK1016790A, read-out: normalized % inhibition TRPV4): 85.7%
- half-life (t1/2 i.v. rat): 1.05 h
- inhibition at 10 µM (CYP2C9): 63.1%
SMILES: Cl.Clc1c(OCCNCc2ccco2)ccc2ccccc12 [Compound 1, 2-[(1-chloronaphthalen-2-yl)oxy]-N-(furan-2-ylmethyl)ethanaminium chloride]
- time of inhibition of RBC, higher compared to vehicle group [3]: about 300 sec
- reduction of Micturition Frequency (MF) ([3]; first 30 min): about 36%
